According to US20120077694A1, “TARGETS IN BREAST CANCER FOR PROGNOSIS OR THERAPY” (The Regents of the University of California, priority 2006, published 2012):

These substances were tested on HCC1954 and CAMA1 cells (assay: Cell growth in 3D culture after shRNA knockdown). Conditions: vs shRNA control.
Assay type: cell-based, human

| Substance | colony size / cell growth in 3D culture |
| --- | --- |
| #2969 shPPFIA1: PPFIA1 shRNA hairpin, SEQ ID NO: 192 (CCGGGAGGAGATTGAAAGTCGAGTTCTCGAGAACTCGACTTTCAATCTCCTCTTTTT) | colonies were much smaller |
| #5149 shNEU3: NEU3 shRNA hairpin, SEQ ID NO: 182 (CCGGAGTGACAACATGCTCCTTCAACTCGAGTTGAAGGAGCATGTTGTCACTTTTTT) | colonies were much smaller |
| #38160 shFGF3: FGF3 shRNA hairpin, SEQ ID NO: 190 (CCGGGAGCTGGGCTATAATACGTATCTCGAGATACGTATTATAGCCCAGCTCTTTTTG) | colonies were much smaller |
